{"source": "patent US20260355115A1", "about": "“SUSTAINED-RELEASE MICROSPHERES INCLUDING GLP-1 RECEPTOR AGONIST OR PHARMACEUTICALLY ACCEPTABLE SALT THEREOF AND USE THEREOF” (PEPTRON, INC., priority 2022, published 2026)", "key": {"[1]": {"experiment": "Pharmacokinetic profile of sustained-release formulation in minipigs (s.c., LC-MS/MS of blood)", "format": "in vivo", "details": "0.08 mpk", "experimental": "Next, in order to evaluate the pharmacokinetics in medium-sized animals, the sustained-release formulation of Example 3 according to the present invention was administered to minipigs, and the drug release patterns within the microspheres in the body were evaluated.\nAfter subcutaneous injection (S.C) of drug at a dose of 0.08 mpk (mg/kg) into 20 to 30 kg of male SPF minipigs, the blood concentration of semaglutide was observed over time. A 2.5 ml of blood was collected from the jugular vein at 1 hour, 6 hours, 12 hours, 24 hours, 2 days, 3 days, 5 days, 7 days, 9 days, 11 days, 14 days, 16 days, 18 days, 21 days, 24 days, 28 days, 31 days, 35 days, 42 days, 49 days, 56 days, 63 days, and 70 days (total 23 points) after injection, respectively, stored at −80 °C, and then subjected to LC-MS/MS analysis."}, "[2]": {"experiment": "Evaluation of anti-obesity efficacy in diet-induced obesity (DIO) mouse model", "format": "in vivo, C57BL/6J-DIO mice", "details": "0.1 mpk s.c. QD, 8 weeks, 60% HFD", "experimental": "The sustained-release formulation of Example 3 according to the present invention was administered to a diet-induced obesity (DIO) mouse model to confirm the anti-obesity efficacy.\nSixteen-week-old male C57BL/6J and C57BL/6J-DIO mice (The Jackson Laboratory (JAX), Saeron Bio) were used in the study. After introduction, the mice were sufficiently fed with a regular chow diet (5 kcal % of fat, PicoLab, #5053, USA) or a high fat diet (60 kcal % of fat, Research diet, D12492, USA) together with water, maintained at a temperature of 22±2 °C and a humidity of 50±10%, and acclimated in individual cages under an automatically controlled 12-hour light/dark cycle (dark: 7 pm to 7 am). After one week of acclimation, all prepared subjects were administered and acclimated, and clinical signs (activity, stool abnormalities, bleeding, wounds, deformities, skin, hair, eye abnormalities, etc.) were observed twice a day (when administered in the morning and when monitored in the afternoon).\nTo evaluate body weight and food intake, the drug was administered for 8 weeks under conditions described in Table 6, and body weight (FX-2000i, A&D company, 0.01 to 2200 g) and food intake (CSG201F, OHAUS, 0.1 g to 200 g) were measured daily starting from the first day of administration. All result values were expressed as the mean±standard error, and the statistical significance of the group was calculated through an independent t-test between test substance administration groups.\nThe body weight measurement results were shown in FIG. 5A, and the body weight gain rate (ΔBody weight from baseline (vs Con(-)), %) was shown in FIG. 5B. This was shown as the body weight change (%) calculated by comparing the drug-administered groups to the negative control group."}}, "data": [{"smiles": "CC[C@H](C)[C@H](NC(=O)[C@H](Cc1ccccc1)NC(=O)[C@H](CCC(=O)O)NC(=O)[C@H](CCCCNC(=O)COCCOCCNC(=O)COCCOCCNC(=O)CC[C@H](NC(=O)CCCCCCCCCCCCCCCCC(=O)O)C(=O)O)NC(=O)[C@H](C)NC(=O)[C@H](C)NC(=O)[C@H](CCC(N)=O)NC(=O)CNC(=O)[C@H](CCC(=O)O)NC(=O)[C@H](CC(C)C)NC(=O)[C@H](Cc1ccc(O)cc1)NC(=O)[C@H](CO)NC(=O)[C@H](CO)NC(=O)[C@@H](NC(=O)[C@H](CC(=O)O)NC(=O)[C@H](CO)NC(=O)[C@@H](NC(=O)[C@H](Cc1ccccc1)NC(=O)[C@@H](NC(=O)CNC(=O)[C@H](CCC(=O)O)NC(=O)C(C)(C)NC(=O)[C@@H](N)Cc1cnc[nH]1)[C@@H](C)O)[C@@H](C)O)C(C)C)C(=O)N[C@@H](C)C(=O)N[C@@H](Cc1c[nH]c2ccccc12)C(=O)N[C@@H](CC(C)C)C(=O)N[C@H](C(=O)N[C@@H](CCCNC(=N)N)C(=O)NCC(=O)N[C@@H](CCCNC(=N)N)C(=O)NCC(=O)O)C(C)C", "note": "[semaglutide, N^6,26-{18-[N-(17carboxyheptadecanoyl)-L-γ-glutamyl]-10-oxo-3,6,12,15-tetraoxa-9,18-diazaoctanoyl}-[8 (2-amino-2-propanoic acid), 34-L-arginine] human glucagon-like peptide 1(7-37)]", "values": [{"measurement": "Initial burst release or delayed release", "setting": "[1]; formulation containing the microspheres of Example 3", "result": "no initial burst release or delayed release in minipigs"}, {"measurement": "Release duration of semaglutide", "setting": "[1]; formulation containing the microspheres of Example 3, compared with S.D. rats", "result": "longer in minipigs"}, {"measurement": "Body weight loss rate (ΔBody weight from baseline vs Con(-))", "setting": "[2]", "result": "statistically significant (p<0.05) body weight loss rate"}, {"measurement": "Body weight vs negative control group", "setting": "[2]", "result": "statistically significant decrease (p<0.05) in body weight"}, {"measurement": "Food intake vs negative control group", "setting": "[2]", "result": "statistically significant decrease (p<0.05) in food intake"}]}]}
